Laboratory results taken from ChEMBL document CHEMBL4507277.

Key:
[1] = target: Activin receptor type-1 (Homo sapiens) (UniProt Q04771); settings: Compound concentration 1000.0 nM
[2] = target: Ephrin type-B receptor 3 (Homo sapiens) (UniProt P54753); settings: Compound concentration 1000.0 nM
[3] = tested on: Hepatocyte growth factor receptor (Homo sapiens), P08581 [M1250T]; settings: Compound concentration 1000.0 nM
[4] = target: Ephrin type-A receptor 3 (Homo sapiens) (UniProt P29320); settings: Compound concentration 1000.0 nM
[5] = target: Serine/threonine-protein kinase 38-like (Homo sapiens) (UniProt Q9Y2H1); settings: Compound concentration 1000.0 nM
[6] = target: SRSF protein kinase 2 (Homo sapiens) (UniProt P78362); settings: Compound concentration 1000.0 nM
[7] = target: Serine/threonine-protein kinase 17B (Homo sapiens) (UniProt O94768); settings: Compound concentration 1000.0 nM
[8] = target: Cyclin-dependent kinase 4 (Homo sapiens) (UniProt P11802); settings: Compound concentration 1000.0 nM
[9] = target: Mitogen-activated protein kinase 12 (Homo sapiens) (UniProt P53778); settings: Compound concentration 1000.0 nM
[10] = target: Serine/threonine-protein kinase BRSK2 (Homo sapiens) (UniProt Q8IWQ3); settings: Compound concentration 1000.0 nM
[11] = target: Serine/threonine-protein kinase NLK (Homo sapiens) (UniProt Q9UBE8); settings: Compound concentration 1000.0 nM
[12] = target: Serine/threonine-protein kinase Sgk3 (Homo sapiens) (UniProt Q96BR1); settings: Compound concentration 1000.0 nM
[13] = target: Ribosomal protein S6 kinase alpha-2 (Homo sapiens) (UniProt Q15349); settings: Compound concentration 1000.0 nM
[14] = target: Mitogen-activated protein kinase 11 (Homo sapiens) (UniProt Q15759); settings: Compound concentration 1000.0 nM
[15] = target: Phosphatidylinositol 4-kinase beta (Homo sapiens) (UniProt Q9UBF8); settings: Compound concentration 1000.0 nM
[16] = target: Atypical kinase COQ8B, mitochondrial (Homo sapiens) (UniProt Q96D53); settings: Compound concentration 1000.0 nM
[17] = target: Mitogen-activated protein kinase kinase kinase 10 (Homo sapiens) (UniProt Q02779); settings: Compound concentration 1000.0 nM
[18] = target: Mitogen-activated protein kinase kinase kinase 4 (Homo sapiens) (UniProt Q9Y6R4); settings: Compound concentration 1000.0 nM
[19] = target: Ribosomal protein S6 kinase alpha-3 (Homo sapiens) (UniProt P51812); settings: Compound concentration 1000.0 nM
[20] = target: Mitogen-activated protein kinase 7 (Homo sapiens) (UniProt Q13164); settings: Compound concentration 1000.0 nM
[21] = target: T1, D(4) dopamine receptor (Homo sapiens) (UniProt P21917); settings: Compound concentration 10.0 uM
T1 sequence (whole entry): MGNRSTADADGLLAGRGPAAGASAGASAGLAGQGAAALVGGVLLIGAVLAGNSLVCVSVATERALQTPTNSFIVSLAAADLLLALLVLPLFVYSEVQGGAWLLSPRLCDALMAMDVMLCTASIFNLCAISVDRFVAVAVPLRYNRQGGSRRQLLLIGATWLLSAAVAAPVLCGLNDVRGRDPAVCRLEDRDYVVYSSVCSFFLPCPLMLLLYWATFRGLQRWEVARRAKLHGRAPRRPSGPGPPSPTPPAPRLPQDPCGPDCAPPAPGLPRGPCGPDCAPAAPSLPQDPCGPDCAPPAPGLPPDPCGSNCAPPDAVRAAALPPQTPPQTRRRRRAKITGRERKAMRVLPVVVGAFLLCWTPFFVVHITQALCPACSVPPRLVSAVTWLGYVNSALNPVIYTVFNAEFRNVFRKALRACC

[22] = target: Mast/stem cell growth factor receptor Kit (Homo sapiens) (UniProt P10721); settings: Compound concentration 1000.0 nM
[23] = target: Serine/threonine-protein kinase 16 (Homo sapiens) (UniProt O75716); settings: Compound concentration 1000.0 nM
[24] = target: Glycogen synthase kinase-3 beta (Homo sapiens) (UniProt P49841); settings: Compound concentration 1000.0 nM
[25] = target: Serine/threonine-protein kinase SIK3 (Homo sapiens) (UniProt Q9Y2K2); settings: Compound concentration 1000.0 nM
[26] = target: Serine/threonine-protein kinase Nek6 (Homo sapiens) (UniProt Q9HC98); settings: Compound concentration 1000.0 nM
[27] = target: Phosphorylase b kinase gamma catalytic chain, skeletal muscle/heart isoform (Homo sapiens) (UniProt Q16816); settings: Compound concentration 1000.0 nM
[28] = target: Tyrosine-protein kinase Fgr (Homo sapiens) (UniProt P09769); settings: Compound concentration 1000.0 nM
[29] = target: Cyclin-dependent kinase 17 (Homo sapiens) (UniProt Q00537); settings: Compound concentration 1000.0 nM
[30] = target: Serine/threonine-protein kinase pim-1 (Homo sapiens) (UniProt P11309); settings: Compound concentration 1000.0 nM
[31] = target: Ephrin type-A receptor 5 (Homo sapiens) (UniProt P54756); settings: Compound concentration 1000.0 nM
[32] = target: Receptor tyrosine-protein kinase erbB-2 (Homo sapiens) (UniProt P04626); settings: Compound concentration 1000.0 nM
[33] = target: Dual specificity mitogen-activated protein kinase kinase 5 (Homo sapiens) (UniProt Q13163); settings: Compound concentration 1000.0 nM
[34] = target: RAC-gamma serine/threonine-protein kinase (Homo sapiens) (UniProt Q9Y243); settings: Compound concentration 1000.0 nM
[35] = target: Mitogen-activated protein kinase 1 (Homo sapiens) (UniProt P28482); settings: Compound concentration 1000.0 nM
[36] = target: Ribosomal protein S6 kinase alpha-1 (Homo sapiens) (UniProt Q15418); settings: Compound concentration 1000.0 nM
[37] = target: Homeodomain-interacting protein kinase 4 (Homo sapiens) (UniProt Q8NE63); settings: Compound concentration 1000.0 nM
[38] = target: Ribosomal protein S6 kinase alpha-4 (Homo sapiens) (UniProt O75676); settings: Compound concentration 1000.0 nM
[39] = tested on: Epidermal growth factor receptor (Homo sapiens), P00533 [L858R,T790M]; settings: Compound concentration 1000.0 nM
[40] = target: BDNF/NT-3 growth factors receptor (Homo sapiens) (UniProt Q16620); settings: Compound concentration 1000.0 nM

Sequence of Ribosomal protein S6 kinase alpha-4 (Homo sapiens) (O75676 whole entry, looked up): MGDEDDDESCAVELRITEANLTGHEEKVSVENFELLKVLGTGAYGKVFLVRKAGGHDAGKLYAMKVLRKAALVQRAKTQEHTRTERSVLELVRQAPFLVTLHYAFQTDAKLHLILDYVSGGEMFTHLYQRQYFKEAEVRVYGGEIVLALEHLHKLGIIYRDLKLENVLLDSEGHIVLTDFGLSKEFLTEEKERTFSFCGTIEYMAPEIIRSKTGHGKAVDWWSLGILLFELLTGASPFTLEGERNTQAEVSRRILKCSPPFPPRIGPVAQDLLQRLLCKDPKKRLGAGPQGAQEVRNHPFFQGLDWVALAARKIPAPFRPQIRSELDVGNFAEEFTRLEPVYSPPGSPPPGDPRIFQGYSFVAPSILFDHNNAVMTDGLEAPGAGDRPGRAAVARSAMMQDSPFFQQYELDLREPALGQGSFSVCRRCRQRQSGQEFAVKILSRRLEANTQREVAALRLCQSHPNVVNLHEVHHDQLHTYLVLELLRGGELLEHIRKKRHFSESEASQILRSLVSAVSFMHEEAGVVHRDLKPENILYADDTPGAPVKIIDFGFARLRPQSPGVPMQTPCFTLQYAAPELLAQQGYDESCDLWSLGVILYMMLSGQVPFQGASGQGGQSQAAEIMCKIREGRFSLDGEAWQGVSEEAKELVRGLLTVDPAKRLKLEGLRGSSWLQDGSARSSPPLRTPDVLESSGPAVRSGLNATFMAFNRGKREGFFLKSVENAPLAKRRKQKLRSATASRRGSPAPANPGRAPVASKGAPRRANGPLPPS
Sequence of Cyclin-dependent kinase 17 (Homo sapiens) (Q00537 whole entry, looked up): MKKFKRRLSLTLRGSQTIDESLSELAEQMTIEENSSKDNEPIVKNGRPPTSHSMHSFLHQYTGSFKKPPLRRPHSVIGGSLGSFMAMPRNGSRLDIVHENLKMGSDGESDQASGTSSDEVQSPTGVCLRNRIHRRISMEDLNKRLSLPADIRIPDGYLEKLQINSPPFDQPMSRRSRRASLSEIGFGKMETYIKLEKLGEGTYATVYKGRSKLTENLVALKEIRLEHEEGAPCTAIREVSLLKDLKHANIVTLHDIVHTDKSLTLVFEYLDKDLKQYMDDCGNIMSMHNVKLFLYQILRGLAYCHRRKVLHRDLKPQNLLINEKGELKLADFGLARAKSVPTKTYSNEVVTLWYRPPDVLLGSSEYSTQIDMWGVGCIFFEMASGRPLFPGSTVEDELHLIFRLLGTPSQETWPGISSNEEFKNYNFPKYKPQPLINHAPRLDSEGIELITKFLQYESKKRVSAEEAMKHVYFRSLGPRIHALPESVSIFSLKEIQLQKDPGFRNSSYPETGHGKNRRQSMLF
Sequence of Serine/threonine-protein kinase 17B (Homo sapiens) (O94768 whole entry): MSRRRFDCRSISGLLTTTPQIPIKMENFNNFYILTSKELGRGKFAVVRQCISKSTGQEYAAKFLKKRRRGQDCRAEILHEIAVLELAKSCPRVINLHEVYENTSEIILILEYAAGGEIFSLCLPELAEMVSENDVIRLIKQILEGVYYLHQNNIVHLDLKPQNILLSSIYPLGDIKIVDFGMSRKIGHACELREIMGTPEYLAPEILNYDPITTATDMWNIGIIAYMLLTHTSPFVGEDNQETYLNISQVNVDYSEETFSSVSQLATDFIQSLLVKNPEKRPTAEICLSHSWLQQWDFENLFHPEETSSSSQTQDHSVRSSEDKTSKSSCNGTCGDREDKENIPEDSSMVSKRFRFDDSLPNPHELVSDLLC
Sequence of Atypical kinase COQ8B, mitochondrial (Homo sapiens) (Q96D53 whole entry): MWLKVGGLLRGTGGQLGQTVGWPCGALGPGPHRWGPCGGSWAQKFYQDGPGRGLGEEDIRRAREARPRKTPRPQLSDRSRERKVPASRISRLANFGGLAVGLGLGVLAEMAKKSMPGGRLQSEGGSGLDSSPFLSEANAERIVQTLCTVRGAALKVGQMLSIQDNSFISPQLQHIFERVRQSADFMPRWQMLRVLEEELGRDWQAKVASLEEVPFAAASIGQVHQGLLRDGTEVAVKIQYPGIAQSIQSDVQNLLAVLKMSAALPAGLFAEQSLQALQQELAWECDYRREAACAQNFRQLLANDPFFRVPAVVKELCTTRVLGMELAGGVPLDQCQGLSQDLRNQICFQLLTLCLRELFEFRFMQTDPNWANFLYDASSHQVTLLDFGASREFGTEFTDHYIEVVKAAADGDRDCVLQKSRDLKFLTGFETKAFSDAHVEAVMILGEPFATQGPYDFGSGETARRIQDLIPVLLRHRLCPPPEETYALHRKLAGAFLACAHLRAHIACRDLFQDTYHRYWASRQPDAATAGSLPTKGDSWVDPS
Sequence of Mitogen-activated protein kinase 1 (Homo sapiens) (P28482 whole entry): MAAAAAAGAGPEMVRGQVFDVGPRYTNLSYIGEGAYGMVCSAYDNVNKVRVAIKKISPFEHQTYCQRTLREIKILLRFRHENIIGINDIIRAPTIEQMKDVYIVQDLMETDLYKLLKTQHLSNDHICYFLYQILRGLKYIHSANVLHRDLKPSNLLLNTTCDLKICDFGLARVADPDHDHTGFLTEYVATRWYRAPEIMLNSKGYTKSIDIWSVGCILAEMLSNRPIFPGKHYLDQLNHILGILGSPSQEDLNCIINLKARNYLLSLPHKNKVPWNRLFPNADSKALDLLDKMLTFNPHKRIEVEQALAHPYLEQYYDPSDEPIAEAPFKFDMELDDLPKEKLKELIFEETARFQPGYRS
Sequence of Mitogen-activated protein kinase kinase kinase 10 (Homo sapiens) (Q02779 whole entry, looked up): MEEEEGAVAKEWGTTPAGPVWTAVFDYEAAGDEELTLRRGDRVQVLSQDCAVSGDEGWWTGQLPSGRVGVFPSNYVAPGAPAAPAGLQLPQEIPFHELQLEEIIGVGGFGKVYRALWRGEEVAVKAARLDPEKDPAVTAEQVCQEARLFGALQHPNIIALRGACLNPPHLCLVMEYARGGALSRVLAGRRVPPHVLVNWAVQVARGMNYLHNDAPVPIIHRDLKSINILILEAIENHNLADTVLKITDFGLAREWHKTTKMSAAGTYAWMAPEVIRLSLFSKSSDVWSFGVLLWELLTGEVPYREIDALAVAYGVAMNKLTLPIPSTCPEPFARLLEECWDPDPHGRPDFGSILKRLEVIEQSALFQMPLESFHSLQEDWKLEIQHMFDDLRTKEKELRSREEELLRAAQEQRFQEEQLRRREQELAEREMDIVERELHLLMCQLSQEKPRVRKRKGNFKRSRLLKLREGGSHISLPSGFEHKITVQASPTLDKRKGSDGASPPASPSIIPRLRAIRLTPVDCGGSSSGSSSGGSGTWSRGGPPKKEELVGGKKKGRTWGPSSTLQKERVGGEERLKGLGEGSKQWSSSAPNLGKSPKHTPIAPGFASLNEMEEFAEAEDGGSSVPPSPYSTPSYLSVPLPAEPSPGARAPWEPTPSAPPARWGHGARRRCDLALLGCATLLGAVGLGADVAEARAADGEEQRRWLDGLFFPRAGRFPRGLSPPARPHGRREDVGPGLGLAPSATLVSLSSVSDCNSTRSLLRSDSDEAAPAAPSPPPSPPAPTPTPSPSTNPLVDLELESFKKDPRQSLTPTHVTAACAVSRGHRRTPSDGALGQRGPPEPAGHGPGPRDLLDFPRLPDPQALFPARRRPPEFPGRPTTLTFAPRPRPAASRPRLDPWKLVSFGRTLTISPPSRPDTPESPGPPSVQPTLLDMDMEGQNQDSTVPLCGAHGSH
Sequence of Dual specificity mitogen-activated protein kinase kinase 5 (Homo sapiens) (Q13163 whole entry): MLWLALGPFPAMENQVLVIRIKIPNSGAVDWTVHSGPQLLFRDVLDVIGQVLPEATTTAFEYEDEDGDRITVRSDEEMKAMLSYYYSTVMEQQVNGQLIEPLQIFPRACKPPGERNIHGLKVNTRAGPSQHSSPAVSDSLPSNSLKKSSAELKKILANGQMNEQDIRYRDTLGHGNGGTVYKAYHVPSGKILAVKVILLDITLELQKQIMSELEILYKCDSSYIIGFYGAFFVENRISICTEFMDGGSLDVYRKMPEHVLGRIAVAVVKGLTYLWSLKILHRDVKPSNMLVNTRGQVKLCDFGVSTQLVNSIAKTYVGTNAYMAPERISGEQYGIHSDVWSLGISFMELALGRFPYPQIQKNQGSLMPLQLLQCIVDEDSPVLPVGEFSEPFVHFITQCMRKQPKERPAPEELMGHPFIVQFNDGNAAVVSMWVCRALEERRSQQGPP
Sequence of Ribosomal protein S6 kinase alpha-2 (Homo sapiens) (Q15349 whole entry): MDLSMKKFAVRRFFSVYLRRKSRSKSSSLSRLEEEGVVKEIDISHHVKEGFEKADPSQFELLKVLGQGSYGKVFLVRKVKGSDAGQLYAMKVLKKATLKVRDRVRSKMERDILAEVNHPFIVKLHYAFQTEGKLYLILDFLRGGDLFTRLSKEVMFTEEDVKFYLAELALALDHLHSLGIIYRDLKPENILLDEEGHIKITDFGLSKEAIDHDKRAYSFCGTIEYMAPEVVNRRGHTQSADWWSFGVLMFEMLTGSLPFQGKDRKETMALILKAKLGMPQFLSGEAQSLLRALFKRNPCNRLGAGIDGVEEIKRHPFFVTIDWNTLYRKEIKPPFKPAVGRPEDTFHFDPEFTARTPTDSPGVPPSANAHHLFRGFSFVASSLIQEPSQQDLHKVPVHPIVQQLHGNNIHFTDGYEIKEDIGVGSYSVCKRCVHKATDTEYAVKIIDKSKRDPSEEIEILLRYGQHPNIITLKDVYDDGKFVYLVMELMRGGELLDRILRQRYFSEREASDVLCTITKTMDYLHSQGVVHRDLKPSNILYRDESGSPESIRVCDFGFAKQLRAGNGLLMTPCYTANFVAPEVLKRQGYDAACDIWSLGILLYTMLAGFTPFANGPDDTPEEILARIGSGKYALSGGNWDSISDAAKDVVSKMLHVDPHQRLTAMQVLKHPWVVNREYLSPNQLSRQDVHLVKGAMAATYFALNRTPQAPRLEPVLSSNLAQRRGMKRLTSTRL
Sequence of Serine/threonine-protein kinase pim-1 (Homo sapiens) (P11309 whole entry, looked up): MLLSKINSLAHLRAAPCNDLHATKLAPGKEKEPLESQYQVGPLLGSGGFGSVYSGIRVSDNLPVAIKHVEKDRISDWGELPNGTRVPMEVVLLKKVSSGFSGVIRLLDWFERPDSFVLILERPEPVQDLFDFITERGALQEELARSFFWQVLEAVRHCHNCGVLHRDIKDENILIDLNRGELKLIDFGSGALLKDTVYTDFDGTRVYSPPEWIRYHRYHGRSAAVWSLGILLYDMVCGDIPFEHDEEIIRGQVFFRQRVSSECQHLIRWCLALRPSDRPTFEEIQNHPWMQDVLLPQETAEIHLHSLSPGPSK

| Compound | residual activity [1] | residual activity [2] | residual activity [3] | residual activity [4] | residual activity [5] | residual activity [6] | residual activity [7] | residual activity [8] | residual activity [9] | residual activity [10] | residual activity [11] | residual activity [12] | residual activity [13] | residual activity [14] | residual activity [15] | residual activity [16] | residual activity [17] | residual activity [18] | residual activity [19] | residual activity [20] | also measured |
| --- | --- | --- | --- | --- | --- | --- | --- | --- | --- | --- | --- | --- | --- | --- | --- | --- | --- | --- | --- | --- | --- |
| CCS(=O)(=O)c1cc2cc(C[C@](O)(CC(C)(C)c3ccc(F)cc3C(N)=O)C(F)(F)F)[nH]c2cn1 | 100% | 100% | 100% | 95% | 45% | 82% | 74% | 97% | 100% | 100% | 100% | 89% | 100% | 100% | 100% | 78% | 100% | 93% | 100% | 97% | inhibition [21]: -7.41%; residual activity [22]: 95%; residual activity [23]: 100%; residual activity [24]: 100%; residual activity [25]: 85%; residual activity [26]: 100%; residual activity [27]: 66%; residual activity [28]: 100%; residual activity [29]: 88%; residual activity [30]: 100%; residual activity [31]: 100%; residual activity [32]: 100%; residual activity [33]: 100%; residual activity [34]: 100%; residual activity [35]: 100%; residual activity [36]: 87%; residual activity [37]: 100%; residual activity [38]: 94%; residual activity [39]: 83%; residual activity [40]: 100% |
| CCS(=O)(=O)c1cc2cc(C[C@@](O)(CC(C)(C)c3ccc(F)cc3C(N)=O)C(F)(F)F)[nH]c2cn1 | 100% | 92% | 90% | 85% | 38% | 70% | 76% | 100% | 100% | 72% | 100% | 79% | 80% | 100% | 100% | 100% | 65% | 93% | 100% | 81% | inhibition [21]: 5.32%; residual activity [22]: 100%; residual activity [23]: 91%; residual activity [24]: 90%; residual activity [25]: 81%; residual activity [26]: 100%; residual activity [27]: 67%; residual activity [28]: 88%; residual activity [29]: 82%; residual activity [30]: 97%; residual activity [31]: 100%; residual activity [32]: 100%; residual activity [33]: 81%; residual activity [34]: 90%; residual activity [35]: 94%; residual activity [36]: 0%; residual activity [37]: 100%; residual activity [38]: 71%; residual activity [39]: 83%; residual activity [40]: 84% |
